Source: article PMC3773398, “The Subcellular Localization of the Receptor for Platelet-Activating Factor in Neutrophils Affects Signaling and Activation Characteristics” (Clinical and Developmental Immunology, 2013)

How the values were obtained:
[1] = target: T1, PAFR (receptor for platelet-activating factor) (Homo sapiens, UniProt P25105); assay: agonist-induced superoxide release (isoluminol chemiluminescence) in human neutrophils, abolished by PAFR antagonist WEB2086; Ca2+ mobilization EC50 […]; type: cell-based
T1 construct: gene PTAFR
T1 sequence (P25105 whole entry): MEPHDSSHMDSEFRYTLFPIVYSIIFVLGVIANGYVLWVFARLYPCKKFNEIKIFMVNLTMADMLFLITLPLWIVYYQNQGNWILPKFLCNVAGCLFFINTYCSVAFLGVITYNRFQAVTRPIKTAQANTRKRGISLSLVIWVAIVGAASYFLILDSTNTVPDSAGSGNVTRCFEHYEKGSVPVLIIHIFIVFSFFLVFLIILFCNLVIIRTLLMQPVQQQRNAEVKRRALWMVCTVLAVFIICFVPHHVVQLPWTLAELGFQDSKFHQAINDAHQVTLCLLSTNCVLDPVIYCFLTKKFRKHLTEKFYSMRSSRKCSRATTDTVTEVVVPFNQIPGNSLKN

[2] = target: T1, PAFR (receptor for platelet-activating factor); assay: antagonism of PAF ([…])-induced superoxide release in human neutrophils; type: cell-based

| SMILES | EC50 [1] [nM] | antagonism of PAF (100 nM)-induced superoxide release in human neutrophils [2] |
| --- | --- | --- |
| CCCCCCCCCCCCCCCCOC[C@H](COP(=O)([O-])OCC[N+](C)(C)C)OC(C)=O [PAF] | ~800 |  |
| Cc1nnc2n1-c1sc(CCC(=O)N3CCOCC3)cc1C(c1ccccc1Cl)=NC2 [WEB2086] |  | a specific PAFR antagonist (WEB2086) completely and selectively abolished the release of ROS upon PAF stimulation |
